Results from patent EP4806891A1 (Kangbaida (Sichuan) Biotechnology Co., Ltd., priority 2023, dated 2025).

Each molecule was assayed against T1, HEK-Blue-hTLR8 cells (Homo sapiens, UniProt Q9NR97) (assay: HEK-Blue-hTLR8 cell inhibition assay). Settings: R848 3 µM, 16 h, OD 620 nm, read-out: TLR8 IC50.
T1 construct: expressed in transfected cells; host or cells: HEK-Blue-hTLR8 cells (HEK293-derived reporter line)
T1 sequence (Q9NR97 27-1041): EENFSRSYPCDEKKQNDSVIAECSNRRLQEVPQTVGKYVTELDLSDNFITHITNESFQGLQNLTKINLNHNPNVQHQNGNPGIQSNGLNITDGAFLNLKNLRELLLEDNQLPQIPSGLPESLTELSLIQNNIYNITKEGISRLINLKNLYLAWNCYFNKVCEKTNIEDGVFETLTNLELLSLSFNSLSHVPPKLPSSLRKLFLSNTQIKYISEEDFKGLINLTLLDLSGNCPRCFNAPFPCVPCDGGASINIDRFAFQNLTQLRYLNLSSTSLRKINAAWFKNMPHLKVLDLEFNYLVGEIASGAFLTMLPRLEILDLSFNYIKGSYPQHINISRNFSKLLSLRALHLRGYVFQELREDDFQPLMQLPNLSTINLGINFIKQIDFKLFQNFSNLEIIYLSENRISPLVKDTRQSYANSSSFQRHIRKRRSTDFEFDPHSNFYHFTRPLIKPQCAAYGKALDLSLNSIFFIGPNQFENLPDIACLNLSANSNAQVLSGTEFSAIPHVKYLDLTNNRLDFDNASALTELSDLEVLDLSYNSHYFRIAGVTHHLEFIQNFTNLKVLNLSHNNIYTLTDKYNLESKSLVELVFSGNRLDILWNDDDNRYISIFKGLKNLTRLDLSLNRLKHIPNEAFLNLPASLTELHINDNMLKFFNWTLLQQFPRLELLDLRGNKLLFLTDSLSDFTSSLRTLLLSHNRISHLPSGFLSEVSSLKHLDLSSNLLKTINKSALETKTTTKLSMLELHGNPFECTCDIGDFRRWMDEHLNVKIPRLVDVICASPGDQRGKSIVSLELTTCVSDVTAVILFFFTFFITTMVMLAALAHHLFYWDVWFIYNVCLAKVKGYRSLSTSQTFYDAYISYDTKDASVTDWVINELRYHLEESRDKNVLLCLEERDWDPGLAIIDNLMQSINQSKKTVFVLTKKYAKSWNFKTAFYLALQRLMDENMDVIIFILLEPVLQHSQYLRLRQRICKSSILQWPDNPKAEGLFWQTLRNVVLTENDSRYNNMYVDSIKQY
Format: cell-based
In short: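 Cells were pre-incubated 4 h, then co-treated 16 h at 37 °C with compound (10 doses, 0.5–10000 nM final) plus R848 (0.8 µM for TLR7, 3 µM for TLR8) or ODN2006 (1 µM, TLR9). Reporter OD620 gave inhibition relative to DMSO blank and agonist-only controls; IC50 came from curve fitting.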

| IC50 | Structure (SMILES) |
| --- | --- |
| < 100 nM | CN1CCC(c2nnc([C@]34CN(c5ccc(OC(F)(F)F)c6ncccc56)C[C@@]3(C(F)(F)F)C4)o2)CC1 [Compound 64, 2-(1-methylpiperidin-4-yl)-5-((1S,5R)-5-(trifluoromethyl)-3-(8-(trifluoromethoxy)quinolin-5-yl)-3-azabicyclo[3.1.0]hexan-1-yl)-1,3,4-oxadiazole] |
| > 1000 nM | CN1CCC(c2nnc([C@]34CN(c5ccc(C#N)c6ncccc56)C[C@@]3(C(F)(F)F)C4)n2C)CC1 [Compound 5, 5-((1S,5R)-1-(4-methyl-5-(1-methylpiperidin-4-yl)-4H-1,2,4-triazol-3-yl)-5-(trifluoromethyl)-3-azabicyclo[3.1.0]hexan-3-yl)quinoline-8-carbonitrile] |
| < 100 nM | CN1CCC(F)(c2nnc([C@]34CN(c5ccc(C#N)c6ncccc56)C[C@@]3(C(F)(F)F)C4)o2)C1 (stereo partly drawn) [Compound 47, 5-((1S,5R)-1-(5-(3-fluoro-1-methylpyrrolidin-3-yl)-1,3,4-oxadiazol-2-yl)-5-(trifluoromethyl)-3-azabicyclo[3.1.0]hexan-3-yl)quinoline-8-carbonitrile] |
| < 100 nM | CN1CCC(Oc2nnc([C@]34CN(c5ccc(C#N)c6ncnn56)C[C@@]3(C(F)(F)F)C4)o2)CC1 [Compound 97, 5-((1S,5R)-1-(5-((1-methylpiperidin-4-yl)oxy)-1,3,4-oxadiazol-2-yl)-5-(trifluoromethyl)-3-azabicyclo[3.1.0]hexan-3-yl)-[1,2,4]triazolo[1,5-a]pyridine-8-carbonitrile] |
